{"source": "patent EP4722365A1", "about": "“DOUBLE-STRANDED NUCLEOTIDE COMPOUND FOR METABOLIC DISEASES AND USE THEREOF” (Visirna Therapeutics (Suzhou) Co., Ltd., priority 2023, dated 2024)", "key": {"DGAT2 [1]": {"system": "DGAT2", "assay": "Inhibitory activity of dS319 on the target gene DGAT2 in non-naive Cynomolgus macaque (Example 11)", "format": "in vivo", "settings": "for Average inhibition rate, %: 3mpk subcutaneous on days 1 and 29, liver", "procedure": "In-vivo experiment: The in-vivo experimental designs for subcutaneous injection in non-naive Cynomolgus macaque, the administration and the sample collection method were shown in the table below. The day of administration to non-naive Cynomolgus macaque was defined as day 1, the day before it was day 0, the day after it was day 2, and so on. Each group had 2 animals. On days 1 and 29, the animals were injected subcutaneously with the solvent or 0.5 mL/kg of the test compound.\nOn day 0 (0 h) before administration by SC, and days 7, 29, 56 and 99 after administration, the liver sample was collected. Collection method: The animals was fasted for 12-16 hrs before sample collection. Collection of liver biopsy tissue: The collection process would be operated and recorded according to the SOP of the research institution."}, "DGAT2 [2]": {"system": "DGAT2", "assay": "Inhibitory activity on the target gene DGAT2 in non-naive Cynomolgus macaque (Example 10, liver biopsy qPCR)", "format": "in vivo", "procedure": "The in-vivo experimental designs for subcutaneous injection in non-naive Cynomolgus macaque, the administration and the sample collection method were shown in the table below.\nThe day of administration to non-naive Cynomolgus macaque was defined as day 1, the day before it was day 0, the day after it was day 2, and so on. Each group had 2 animals. On days 1, 4, 8, 15, 22, 29, 36, 43, 50, and 57, the animals in Groups 1 and 2 were injected with the solvent or 4 mg/kg (0.5mL/kg) of the positive reference compound. On days 1 and 29, the animals in Groups 3 to 7 were injected subcutaneously with 0.5 mL/kg of the test compound.\nOn day 0 (0 h) before administration by SC, and days 7, 15, 28, 57, and 99 after administration, the liver sample was collected. Collection method: The animals was fasted for 12-16 hrs before sample collection. Collection of liver biopsy tissue: The collection process would be operated and recorded according to the SOP of the research institution. The location of the liver was determined by B ultrasound scan, the right liver was mainly used, and the gallbladder and major blood vessels were avoided. The biopsy needle was inserted under the guidance of the B-ultrasound probe. Guided by the image on the B-ultrasound screen, the needle entered the liver away from the gallbladder and major blood vessels, and the materials were sampled by puncture. After biopsy, the biopsy needle was withdrawn and the samples were collected. The obtained samples were immediately immersed in PBS with RNAlater®, and allowed to stand overnight at 4°C. Then the residual liquid was sucked off, and the remainder was stored at -80°C or below until it was transported in the presence of dry ice and detected.\nTrizol was homogenized by Qiagen Tissue Lyser II at 26 Hz for 2 min and lyzed at room temperature for 5 min. 1 mL of the supernatant was taken, added to 200 uL of chloroform, shaken for 15 s, allowed to stand for 3 min, and centrifuged. The supernatant was collected, added with an equal volume of isopropanol, and stood overnight at -20°C for precipitation. The precipitate was washed twice with 70%, and dissolved in water without RNase. The concentration of the RNA sample was determined by Nanodrop ONE and diluted to 200 ng/µL with water without RNase for reverse transcription.\nThe experimental steps of reverse transcription could be made reference to the instruction of HiScript® III RT SuperMix for qPCR (+gDNA wiper). Briefly, a gDNA removal mixture was prepared according to the table below. A mixture (11 µL/sample) of 4 x gDNA wiper Mix and RNase-Free ddH2O and 1000 ng RNA sample (5 µL RNA sample with a concentration of 200 ng/µL) were added to a 96-well PCR reaction plate, incubated at 42°C for 2 min, and cooled on ice. 4 µL 5 x HiScript III qRT SuperMix and the DNA removed product from the previous step were added to a 96-well PCR reaction plate for reverse transcription. Reaction conditions: 37°C for 15 min; and 85°C for 5 sec. The cDNA was stored at 4°C for further analysis.\nThe method for detecting the expression levels of DGAT2 and GAPDH genes in the liver of Cynomolgus macaque by quantitative PCR was briefly described as follows: As shown in the table below, a qPCR reaction mixture was prepared, and 2 µL of a cDNA sample diluted 2 times with RNase-free water was added for PCR reaction. Reaction conditions: 95°C for 10 min; and 40 cycles of 95°C for 15 sec, and 60°C for 1 min.\nAll values were normalized to the average of the group on day 0."}, "DGAT2 [3]": {"system": "DGAT2", "assay": "Inhibition rate on target gene DGAT2 mRNA in primary human hepatocytes (PHHs), free uptake", "format": "cell-based", "procedure": "The test compound was prepared into a 100 µM/200 µM mother liquor with PBS.\nHuman hepatocytes (PHHs). PHHs were revived and cultured in InvitroGRO CP medium (BIOIVT article number S0331) containing 10% fetal bovine serum (FBS, Gibco article number 10091148) and 1% penicillin-streptomycin (PS, HyClone article number SV30010).\nPHHs (5.4 × 10^4 cells/well) were inoculated into a 96-well plate, and siRNA was added into the cell while plating. The compound entered the cells through free uptake. […] concentration points (100 nM, 20 nM, 4 nM, 0.8 nM, 0.16 nM, 0.032 nM, and 0.0064 nM) were set for siRNA test, and 2 wells were measured in parallel. At the same time, a compound-free control group containing PBS was set up. The cells were cultured in an incubator at 37°C with 5% CO2.\n48 hrs later, the medium was removed and the cells were collected for RNA extraction. Total RNA was extracted by using RNeasy® 96 Kit (QIAGEN-74182) according to the instructions for use of the kit. cDNA was synthesized by using HiScript III RT SuperMix for qPCR (+gDNA wiper) (Vazyme article number R323-01) following the instructions.\nThe target gen cDNA was detected by qPCR, and the internal reference gene GAPDH cDNA was also detected. 8 µL of prepared PCR reaction solution and 2 µL of sample cDNA were added into a 384 well plate. […]"}, "[4]": {"settings": "3mpk subcutaneous on days 1 and 29, normalized to day 0"}, "[5]": {"settings": "10mpk subcutaneous on days 1 and 29, normalized to day 0"}}, "note": "pIC50: −log10 of the molar value.", "data": [{"substance": "dS319: sense (invAb)*acaccauaGfAfCfuauuugcuua[L96]; anti-sense Vpu*Af*a*GfcAfaauagUfcUfaUfgGfuGf* u", "values": [{"measurement": "Average inhibition rate, %", "setting": "DGAT2 [1]; D7", "value": 84.9, "unit": "%"}, {"measurement": "Average inhibition rate, %", "setting": "DGAT2 [1]; D28", "value": 93.2, "unit": "%"}, {"measurement": "Average inhibition rate, %", "setting": "DGAT2 [1]; D56", "value": 89.4, "unit": "%"}, {"measurement": "Average inhibition rate, %", "setting": "DGAT2 [1]; D99", "value": 88, "unit": "%"}, {"measurement": "inhibitory activity on the target gene DGAT2", "setting": "DGAT2 [1]; conclusion in words, non-naive Cynomolgus macaque", "value": "long-term inhibitory activity"}, {"measurement": "Average inhibition rate, % (D28)", "setting": "DGAT2 [2]; [4]", "value": 86.6, "unit": "%"}, {"measurement": "Average inhibition rate, % (D56)", "setting": "DGAT2 [2]; [4]", "value": 91.1, "unit": "%"}, {"measurement": "Average inhibition rate, % (D99)", "setting": "DGAT2 [2]; [4]", "value": 72.2, "unit": "%"}, {"measurement": "Average inhibition rate, % (D28)", "setting": "DGAT2 [2]; [5]", "value": 96.0, "unit": "%"}, {"measurement": "Average inhibition rate, % (D56)", "setting": "DGAT2 [2]; [5]", "value": 97.9, "unit": "%"}, {"measurement": "Average inhibition rate, % (D99)", "setting": "DGAT2 [2]; [5]", "value": 89.1, "unit": "%"}, {"measurement": "pIC50", "setting": "DGAT2 [3]", "value": 10.21}]}]}
